Experimental data as given in US8394641B2, “Method of hydrolyzing an enzymatic substrate” (Advanced Liquid Logic Inc., priority 2009, dated 2013).

How the values were obtained:
[1] = 4-MU partitioning assay (forward and backward extraction) with cyclodextrins; format: physicochemical; settings: for aqueous containment of 4-MU: independent of pH
Method: The assay format includes forward transfer partitioning (forward extraction; FE) of 4-MU from an aqueous phase to an oil phase and backward transfer partitioning (backward extraction; BE) of 4-MU from an oil phase to an aqueous phase. The assay is performed in 96-well microtiter substrates; clear 96-well substrates (e.g., Costar 3631) for evaluation of forward transfer partitioning with bottom probe fluorescence detection and solid black 96-well substrates (e.g., Costar 3915) for evaluation of backward transfer partitioning with top probe fluorescence detection. A BioTek Synergy HT instrument with 3 mm top probe and 5 mm bottom probe, may, for example, be used for fluorescence measurements. In one example, parameters that may be varied in the assay for evaluation of cyclodextrins in aqueous containment of 4-MU include, but are not limited to, ionic strength of the aqueous phase solution, pH of the aqueous phase solution (e.g., pH 2 or pH 5), and the molar ratio of cyclodextrins to 4-MU.
An example of an assay format used for testing the effect of cyclodextrins on contamination through 4-MU partitioning includes, but is not limited to, the following steps: Pipette an aliquot (20 μL) of an aqueous phase solution (e.g., at pH 2, pH5 or pH 10.5) containing a surfactant, such as 0.01% Tween® 20 in a well of a 96-well clear microtiter plate. […] Measure the fluorescence of each well using a bottom probe at gains 40, 45, and 50. […] Remove the aluminum foil and measure the fluorescence of each well using a top probe at gains 50, 60, 70, and 80. […]
Each well of the second microtiter plate (i.e., a solid black microtiter plate) contains 50 μL of an aqueous solution (200 mM NaHCO3) at pH 10.5. […] For fluorescence calibration, an aqueous solution containing 4-MU (0, 0.01, 0.1, or 1 μM) was added to the corresponding “empty” wells of Table 5 and overlaid with a 50 μL aliquot of fresh oil.
FIGS. 17A and 17B show data tables 1700 and 1750, respectively, of fluorescence readings for forward transfer and backward transfer, respectively, of the 4-MU partitioning assay of Tables 5 and 6. […]

Krabbe assay = target: T1, Krabbe assay (Homo sapiens, UniProt P54803); test: Krabbe assay on bench, substrate hydrolysis with cyclodextrins, QC DBS extracts; format: biochemical; settings: data not shown
T1 construct: DBS extracts were prepared from quality control (QC) dried blood spot samples; tissue CDC, Atlanta Ga; host or cells: dried blood spot extracts (pooled cord blood / leukoreduced red cells plus serum)
T1 sequence (P54803 43-685): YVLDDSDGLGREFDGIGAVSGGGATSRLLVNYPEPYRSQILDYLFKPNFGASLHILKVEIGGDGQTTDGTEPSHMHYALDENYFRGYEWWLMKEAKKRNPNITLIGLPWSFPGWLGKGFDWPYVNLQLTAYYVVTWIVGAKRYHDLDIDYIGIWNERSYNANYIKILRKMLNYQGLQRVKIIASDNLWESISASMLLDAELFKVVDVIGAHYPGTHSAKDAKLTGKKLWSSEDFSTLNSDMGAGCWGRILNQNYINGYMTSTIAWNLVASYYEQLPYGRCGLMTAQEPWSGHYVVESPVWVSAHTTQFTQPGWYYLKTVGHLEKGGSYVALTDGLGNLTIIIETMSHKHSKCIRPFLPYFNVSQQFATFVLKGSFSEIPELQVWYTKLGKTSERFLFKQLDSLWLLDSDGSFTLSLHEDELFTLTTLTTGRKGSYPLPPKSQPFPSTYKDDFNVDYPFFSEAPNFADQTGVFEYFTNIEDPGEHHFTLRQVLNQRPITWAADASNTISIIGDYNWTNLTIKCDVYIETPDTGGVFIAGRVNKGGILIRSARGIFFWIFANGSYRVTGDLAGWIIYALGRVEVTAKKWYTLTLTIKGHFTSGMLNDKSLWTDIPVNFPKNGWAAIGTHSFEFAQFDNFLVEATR
Method: To evaluate the efficacy of cyclodextrins in enhancing the hydrolysis of enzymatic substrates (4-MU substrates) used in NBS assays, DBS extracts were prepared from quality control (QC) dried blood spot samples (i.e., base pool (BP), low (L), medium (M) and high (H) activity samples). The QC samples were obtained from CDC, Atlanta Ga. The base pool (BP) QC sample was prepared from a pool of leukoreduced human red blood cells that was adjusted with serum to a hematocrit of 50%. The High (H) activity QC sample was prepared from pooled cord blood that was adjusted with serum to a hematocrit of 50%. The medium (M) activity QC sample was prepared by using 50% base pool (BP) and 50% high (H) activity sample. The low (L) activity QC sample was prepared by using 95% base pool (BP) and 5% high (H) activity sample. The BP sample is used as a control for hydrolysis non-specific to white blood cell lysosomal enzymes. The DBS extracts were analyzed using on-bench assay protocols for Fabry, Gaucher, Krabbe, and Pompe diseases. For each assay, on-chip reagent formulations were scaled up to bench volumes. Hydroxypropyl-β-cyclodextrin or methyl-β-cyclodextrin reagent stocks (300 mM) were prepared in appropriate assay buffers. […] Fluorescence was read at 360/460 nm at a gain of 75. For each assay, QC samples (BP, L, M and H) were analyzed in duplicate. […]

| aqueous containment of 4-MU [1] | contamination signal (back extraction) ([1]; molar ratio of Me-bCD to 4-MU 200:1, FIG. 16D) | effect on substrate hydrolysis in a Krabbe assay (Krabbe assay) | Substance |
| --- | --- | --- | --- |
| effective | lowest contamination signal | inhibitory | methyl-β-cyclodextrin |
| effective |  | inhibitory | hydroxypropyl-β-cyclodextrin |
